Data reported in ChEMBL document CHEMBL5154740, “Novel Aurora A and Protein Kinase C (α, β1, β2, and θ) Multitarget Inhibitors: Impact of Selenium Atoms on the Potency and Selectivity” (J Med Chem, 2022).

How the values were obtained:
[1] = biological target: T1, Serine/threonine-protein kinase D1 (Homo sapiens) (UniProt Q15139); assay: Inhibition of PKCmu (unknown origin) at 50 nM by Z'LYTE screening method relative to control
T1 sequence (whole entry): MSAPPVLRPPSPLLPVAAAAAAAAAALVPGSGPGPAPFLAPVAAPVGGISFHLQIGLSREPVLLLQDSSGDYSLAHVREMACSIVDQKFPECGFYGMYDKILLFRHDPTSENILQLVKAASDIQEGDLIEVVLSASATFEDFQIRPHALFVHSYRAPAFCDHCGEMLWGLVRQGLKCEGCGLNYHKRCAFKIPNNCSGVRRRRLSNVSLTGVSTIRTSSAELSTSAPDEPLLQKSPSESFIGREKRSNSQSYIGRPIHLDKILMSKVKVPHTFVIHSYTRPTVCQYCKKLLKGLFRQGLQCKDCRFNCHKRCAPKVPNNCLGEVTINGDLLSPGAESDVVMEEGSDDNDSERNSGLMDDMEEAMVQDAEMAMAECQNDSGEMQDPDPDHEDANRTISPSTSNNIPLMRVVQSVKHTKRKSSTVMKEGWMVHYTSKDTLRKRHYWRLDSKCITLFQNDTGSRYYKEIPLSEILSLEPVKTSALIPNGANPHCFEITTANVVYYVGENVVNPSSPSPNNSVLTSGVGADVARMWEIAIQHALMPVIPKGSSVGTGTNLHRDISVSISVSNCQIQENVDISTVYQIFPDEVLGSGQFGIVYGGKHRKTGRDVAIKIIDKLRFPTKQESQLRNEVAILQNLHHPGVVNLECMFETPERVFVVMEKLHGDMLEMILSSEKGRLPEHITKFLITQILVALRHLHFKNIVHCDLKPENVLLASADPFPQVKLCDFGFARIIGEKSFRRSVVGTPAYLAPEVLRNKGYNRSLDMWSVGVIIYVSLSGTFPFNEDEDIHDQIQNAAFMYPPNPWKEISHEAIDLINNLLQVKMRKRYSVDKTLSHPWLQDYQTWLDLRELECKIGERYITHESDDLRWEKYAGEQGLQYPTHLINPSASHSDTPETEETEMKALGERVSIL

[2] = biological target: T2, TGF-beta receptor type-1 (Homo sapiens) (UniProt P36897); assay: Inhibition of TGFBR1 (unknown origin) at 50 nM by Z'LYTE screening method relative to control
T2 sequence (whole entry): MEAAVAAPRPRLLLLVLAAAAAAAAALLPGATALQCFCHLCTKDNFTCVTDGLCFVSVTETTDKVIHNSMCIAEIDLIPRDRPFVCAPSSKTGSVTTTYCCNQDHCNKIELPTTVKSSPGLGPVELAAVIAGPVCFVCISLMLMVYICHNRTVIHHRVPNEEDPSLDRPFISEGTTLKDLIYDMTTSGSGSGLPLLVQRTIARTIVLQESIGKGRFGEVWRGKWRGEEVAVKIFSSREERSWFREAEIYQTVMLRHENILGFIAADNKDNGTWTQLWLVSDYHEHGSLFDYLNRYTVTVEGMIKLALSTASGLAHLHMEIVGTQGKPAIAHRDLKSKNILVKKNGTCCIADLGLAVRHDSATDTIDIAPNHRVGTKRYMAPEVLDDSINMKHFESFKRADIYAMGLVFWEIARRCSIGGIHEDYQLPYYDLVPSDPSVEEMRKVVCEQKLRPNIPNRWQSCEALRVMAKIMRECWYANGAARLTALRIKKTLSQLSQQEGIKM

[3] = biological target: Hepatocyte growth factor receptor (Homo sapiens) (UniProt P08581); assay: Inhibition of cMet (unknown origin) at 50 nM by Z'LYTE screening method relative to control
Sequence of Hepatocyte growth factor receptor (Homo sapiens) (P08581 whole entry): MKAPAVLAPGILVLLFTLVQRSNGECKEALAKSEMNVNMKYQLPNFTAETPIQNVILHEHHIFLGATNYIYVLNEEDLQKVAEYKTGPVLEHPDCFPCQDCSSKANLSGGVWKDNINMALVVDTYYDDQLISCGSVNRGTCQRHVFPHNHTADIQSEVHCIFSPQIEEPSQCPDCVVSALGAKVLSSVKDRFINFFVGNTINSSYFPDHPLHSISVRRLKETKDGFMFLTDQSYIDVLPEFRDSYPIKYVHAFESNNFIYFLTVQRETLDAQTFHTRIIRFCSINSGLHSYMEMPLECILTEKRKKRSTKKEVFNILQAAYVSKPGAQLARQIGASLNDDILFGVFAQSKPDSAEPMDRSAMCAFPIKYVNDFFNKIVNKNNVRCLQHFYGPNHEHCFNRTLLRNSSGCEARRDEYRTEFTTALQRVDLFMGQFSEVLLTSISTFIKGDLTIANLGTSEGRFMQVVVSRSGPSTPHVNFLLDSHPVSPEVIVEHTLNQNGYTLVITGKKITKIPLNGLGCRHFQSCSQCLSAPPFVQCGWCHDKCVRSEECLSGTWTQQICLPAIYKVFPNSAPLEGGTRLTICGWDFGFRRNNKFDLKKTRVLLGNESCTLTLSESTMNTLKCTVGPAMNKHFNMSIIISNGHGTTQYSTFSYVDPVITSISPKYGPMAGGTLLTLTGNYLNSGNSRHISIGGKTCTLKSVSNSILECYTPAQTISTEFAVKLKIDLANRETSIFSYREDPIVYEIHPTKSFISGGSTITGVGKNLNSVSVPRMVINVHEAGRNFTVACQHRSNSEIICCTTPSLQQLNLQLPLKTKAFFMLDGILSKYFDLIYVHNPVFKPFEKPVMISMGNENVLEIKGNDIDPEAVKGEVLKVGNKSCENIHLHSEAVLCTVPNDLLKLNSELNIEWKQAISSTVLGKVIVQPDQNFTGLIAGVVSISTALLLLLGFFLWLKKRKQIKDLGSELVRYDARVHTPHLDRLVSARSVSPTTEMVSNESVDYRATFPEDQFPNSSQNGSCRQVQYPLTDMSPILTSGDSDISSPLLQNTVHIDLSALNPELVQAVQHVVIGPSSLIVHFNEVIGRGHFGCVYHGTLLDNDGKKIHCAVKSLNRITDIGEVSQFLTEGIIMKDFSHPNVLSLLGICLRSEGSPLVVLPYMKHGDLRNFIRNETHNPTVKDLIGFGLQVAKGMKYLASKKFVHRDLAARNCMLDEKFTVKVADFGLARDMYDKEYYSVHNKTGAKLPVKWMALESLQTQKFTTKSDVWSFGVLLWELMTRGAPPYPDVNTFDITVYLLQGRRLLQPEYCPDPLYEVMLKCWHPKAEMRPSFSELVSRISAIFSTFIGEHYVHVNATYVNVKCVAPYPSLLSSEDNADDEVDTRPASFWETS

[4] = biological target: Protein kinase C eta type (Homo sapiens, UniProt P24723); assay: Inhibition of PKCeta (unknown origin) at 50 nM by Z'LYTE screening method relative to control
Sequence of Protein kinase C eta type (P24723 whole entry): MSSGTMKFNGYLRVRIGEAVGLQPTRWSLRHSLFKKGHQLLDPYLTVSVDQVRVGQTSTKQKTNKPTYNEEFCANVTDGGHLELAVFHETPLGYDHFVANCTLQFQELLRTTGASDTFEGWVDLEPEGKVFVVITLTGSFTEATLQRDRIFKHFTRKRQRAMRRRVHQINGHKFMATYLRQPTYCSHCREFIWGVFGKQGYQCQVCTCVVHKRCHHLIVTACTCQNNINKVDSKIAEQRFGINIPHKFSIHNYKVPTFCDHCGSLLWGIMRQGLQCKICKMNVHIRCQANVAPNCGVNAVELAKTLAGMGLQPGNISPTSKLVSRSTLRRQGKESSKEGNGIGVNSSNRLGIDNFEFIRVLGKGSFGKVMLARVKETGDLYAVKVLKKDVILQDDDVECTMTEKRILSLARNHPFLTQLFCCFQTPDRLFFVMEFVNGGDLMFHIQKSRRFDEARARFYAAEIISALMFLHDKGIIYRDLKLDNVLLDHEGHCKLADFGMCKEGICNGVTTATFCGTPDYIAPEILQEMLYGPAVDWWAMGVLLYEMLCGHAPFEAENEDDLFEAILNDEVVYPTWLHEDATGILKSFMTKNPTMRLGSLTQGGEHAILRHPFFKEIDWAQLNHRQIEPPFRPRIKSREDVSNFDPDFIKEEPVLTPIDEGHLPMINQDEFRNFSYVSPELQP

[5] = biological target: Tyrosine-protein kinase JAK2 (Homo sapiens) (UniProt O60674); assay: Inhibition of JAK2 (unknown origin) at 50 nM by Z'LYTE screening method relative to control
Sequence of Tyrosine-protein kinase JAK2 (Homo sapiens) (O60674 whole entry): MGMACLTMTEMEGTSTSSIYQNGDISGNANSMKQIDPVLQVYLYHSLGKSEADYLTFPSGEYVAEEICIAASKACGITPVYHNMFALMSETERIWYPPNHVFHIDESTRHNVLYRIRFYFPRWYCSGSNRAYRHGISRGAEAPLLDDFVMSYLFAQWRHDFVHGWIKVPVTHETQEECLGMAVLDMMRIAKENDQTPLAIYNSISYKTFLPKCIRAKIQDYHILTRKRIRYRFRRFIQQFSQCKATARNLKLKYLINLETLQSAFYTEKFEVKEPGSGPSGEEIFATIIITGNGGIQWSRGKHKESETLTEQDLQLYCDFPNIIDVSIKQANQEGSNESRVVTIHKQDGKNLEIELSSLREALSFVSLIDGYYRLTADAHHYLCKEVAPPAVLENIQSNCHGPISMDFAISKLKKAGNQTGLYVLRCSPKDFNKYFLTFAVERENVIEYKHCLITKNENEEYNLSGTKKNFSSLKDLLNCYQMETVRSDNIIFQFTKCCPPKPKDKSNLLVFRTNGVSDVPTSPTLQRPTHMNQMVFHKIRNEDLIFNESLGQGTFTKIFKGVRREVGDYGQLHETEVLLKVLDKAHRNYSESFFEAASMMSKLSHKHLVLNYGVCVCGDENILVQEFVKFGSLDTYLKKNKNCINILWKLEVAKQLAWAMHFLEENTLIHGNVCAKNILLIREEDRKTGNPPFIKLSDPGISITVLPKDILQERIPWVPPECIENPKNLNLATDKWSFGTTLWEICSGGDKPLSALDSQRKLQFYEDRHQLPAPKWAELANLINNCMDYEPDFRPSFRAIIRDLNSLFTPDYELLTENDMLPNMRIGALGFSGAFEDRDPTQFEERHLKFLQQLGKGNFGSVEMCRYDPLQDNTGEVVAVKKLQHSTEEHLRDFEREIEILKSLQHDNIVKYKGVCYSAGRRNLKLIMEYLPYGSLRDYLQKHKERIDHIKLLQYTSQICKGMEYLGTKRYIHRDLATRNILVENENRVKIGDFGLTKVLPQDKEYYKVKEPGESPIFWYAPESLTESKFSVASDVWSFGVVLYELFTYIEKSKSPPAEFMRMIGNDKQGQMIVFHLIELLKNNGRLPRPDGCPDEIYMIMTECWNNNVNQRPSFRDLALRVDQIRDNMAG

[6] = biological target: T3, Cyclin-dependent kinase 5/CDK5 activator 1 (Homo sapiens) (UniProt Q00535+Q15078); assay: Inhibition of CDK5/p35 (unknown origin) at 50 nM by Z'LYTE screening method relative to control; type: protein-complex assay
T3 sequence (Q00535 whole entry): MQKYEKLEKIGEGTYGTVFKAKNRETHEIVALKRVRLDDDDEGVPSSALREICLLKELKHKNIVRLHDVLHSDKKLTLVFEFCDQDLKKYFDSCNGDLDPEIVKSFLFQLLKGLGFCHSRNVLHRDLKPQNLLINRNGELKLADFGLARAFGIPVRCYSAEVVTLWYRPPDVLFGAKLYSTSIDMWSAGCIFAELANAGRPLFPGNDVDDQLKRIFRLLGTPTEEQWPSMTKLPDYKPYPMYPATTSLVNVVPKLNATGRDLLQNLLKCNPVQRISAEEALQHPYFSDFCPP
T3 sequence (Q15078 99-307 partner limits assumed): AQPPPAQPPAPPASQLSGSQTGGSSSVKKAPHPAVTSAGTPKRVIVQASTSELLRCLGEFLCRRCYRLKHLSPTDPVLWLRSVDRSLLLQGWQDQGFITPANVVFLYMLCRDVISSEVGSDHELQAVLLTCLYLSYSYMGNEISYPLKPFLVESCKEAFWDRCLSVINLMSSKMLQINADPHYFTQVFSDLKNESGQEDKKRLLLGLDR

[7] = biological target: T3, Cyclin-dependent kinase 5/CDK5 activator 1 (Homo sapiens); assay: Inhibition of CDK5/p25 (unknown origin) at 50 nM by Z'LYTE screening method relative to control; type: protein-complex assay
[8] = biological target: T4, Serine/threonine-protein kinase D3 (Homo sapiens) (UniProt O94806); assay: Inhibition of PKCnu (unknown origin) at 50 nM by Z'LYTE screening method relative to control
T4 sequence (whole entry): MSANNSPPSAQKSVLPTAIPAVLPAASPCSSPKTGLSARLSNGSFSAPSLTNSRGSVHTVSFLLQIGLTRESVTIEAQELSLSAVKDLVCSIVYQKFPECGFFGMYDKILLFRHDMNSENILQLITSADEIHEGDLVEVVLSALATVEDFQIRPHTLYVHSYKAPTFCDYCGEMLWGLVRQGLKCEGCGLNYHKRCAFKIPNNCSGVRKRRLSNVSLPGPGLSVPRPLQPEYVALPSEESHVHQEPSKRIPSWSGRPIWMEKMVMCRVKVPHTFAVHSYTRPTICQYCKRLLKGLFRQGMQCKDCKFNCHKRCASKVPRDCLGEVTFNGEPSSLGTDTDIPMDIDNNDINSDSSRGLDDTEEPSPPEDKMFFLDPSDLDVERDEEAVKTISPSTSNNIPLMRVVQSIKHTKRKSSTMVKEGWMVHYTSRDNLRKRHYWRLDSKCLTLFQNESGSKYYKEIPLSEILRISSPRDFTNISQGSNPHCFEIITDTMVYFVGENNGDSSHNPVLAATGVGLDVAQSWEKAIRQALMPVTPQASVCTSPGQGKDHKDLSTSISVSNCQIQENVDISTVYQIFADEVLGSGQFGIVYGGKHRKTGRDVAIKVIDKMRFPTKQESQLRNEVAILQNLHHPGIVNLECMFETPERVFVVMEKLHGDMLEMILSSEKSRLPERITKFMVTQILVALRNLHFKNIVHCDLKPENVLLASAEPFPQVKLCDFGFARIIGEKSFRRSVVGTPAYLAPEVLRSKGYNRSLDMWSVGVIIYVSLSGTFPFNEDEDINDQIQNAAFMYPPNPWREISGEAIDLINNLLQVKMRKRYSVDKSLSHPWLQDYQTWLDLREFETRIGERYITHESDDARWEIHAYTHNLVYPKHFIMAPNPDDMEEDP

[9] = biological target: Mitogen-activated protein kinase 8 (Homo sapiens) (UniProt P45983); assay: Inhibition of MAPK8 (unknown origin) at 50 nM by Z'LYTE screening method relative to control
Sequence of Mitogen-activated protein kinase 8 (Homo sapiens) (P45983 whole entry): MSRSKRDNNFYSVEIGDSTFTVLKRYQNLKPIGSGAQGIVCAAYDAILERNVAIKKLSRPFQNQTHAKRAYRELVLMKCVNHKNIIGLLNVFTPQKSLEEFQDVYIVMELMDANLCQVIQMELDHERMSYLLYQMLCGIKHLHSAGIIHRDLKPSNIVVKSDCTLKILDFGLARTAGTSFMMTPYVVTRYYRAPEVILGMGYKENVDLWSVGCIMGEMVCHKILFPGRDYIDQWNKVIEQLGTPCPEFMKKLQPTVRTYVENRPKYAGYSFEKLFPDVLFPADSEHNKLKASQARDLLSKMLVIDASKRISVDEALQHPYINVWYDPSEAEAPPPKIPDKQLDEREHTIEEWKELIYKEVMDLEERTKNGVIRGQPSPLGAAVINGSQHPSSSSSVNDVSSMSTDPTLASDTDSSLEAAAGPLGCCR

Row | inhibition [1] | inhibition [2] | inhibition [3] | inhibition [4] | inhibition [5] | inhibition [6] | inhibition [7] | inhibition [8] | inhibition [9] | SMILES
1 | 2% |  | 1% | 1% |  |  |  | 1% | 0% | O=c1c2ccccc2[se]n1-c1nc(N[C@@H]2C[C@H]3CC[C@@H]2C3)c2nc[nH]c2n1
2 | 0% |  | 2% | 2% |  |  |  | 2% | 0% | CCN(CC)CCCC(C)Nc1nc(N2Cc3ccccc3C2=O)nc2[nH]cnc12 (configuration not stated)
3 | 1% |  | 1% | 1% |  |  |  | 1% | 0% | C[C@@H]1[C@H]2C[C@@H](C[C@H]1Nc1nc(-n3[se]c4ccccc4c3=O)nc3[nH]cnc13)C2(C)C
4 | 6% | 3% | 0% | 0% | 15% | 2% | 0% | 0% | 0% | O=C1c2ccccc2CN1c1nc(NC2CCCCC2)c2nc[nH]c2n1

The next lines start with the compound.

Row | SMILES | inhibition [1] | inhibition [2] | inhibition [3] | inhibition [4] | inhibition [5] | inhibition [6] | inhibition [7] | inhibition [8] | inhibition [9]
5 | O=c1c2ccccc2[se]n1-c1nc(NC2CCCCC2)c2nc[nH]c2n1 | 5% | 11% | 0% | 0% | 17% | 2% | 4% | 0% | 0%
6 | O=c1c2ccccc2[se]n1-c1nc(N[C@H]2CC[Se]C2)c2nc[nH]c2n1 | 7% | 0% | 0% | 6% | 18% | 1% | 8% | 6% | 0%
7 | O=c1c2ccccc2[se]n1-c1nc(Nc2ccccc2)c2nc[nH]c2n1 | 3% |  | 0% | 0% |  |  |  | 0% | 0%
8 | O=C1c2ccccc2CN1c1nc(NC2CCCC2)c2nc[nH]c2n1 | 1% |  | 0% | 4% |  |  |  | 4% | 0%
9 | O=C1c2ccccc2CN1c1nc(N[C@H]2CC[Se]C2)c2nc[nH]c2n1 | 1% |  | 0% | 3% |  |  |  | 3% | 0%
10 | CCCNc1nc(-n2[se]c3ccccc3c2=O)nc2[nH]cnc12 | 0% |  | 1% | 0% |  |  |  | 0% | 0%
11 | O=c1c2ccccc2[se]n1-c1nc(N[C@H]2CCOC2)c2nc[nH]c2n1 | 0% |  | 0% | 3% |  |  |  | 3% | 0%
12 | CCN(CC)CCCC(C)Nc1nc(-n2[se]c3ccccc3c2=O)nc2[nH]cnc12 (configuration not stated) | 4% |  | 14% | 11% |  |  |  | 11% | 0%
